Assay results published in ChEMBL document CHEMBL3137667, “[Drug-induced liver injury; fourteenth updated edition of the bibliographic database of liver injuries and related drugs]” (Gastroenterol Clin Biol, 2004).

Legend:
[1] = human
[2] = human; remark: listed apart in the source
[3] = human; remark: listed apart in the source
[4] = human; remark: listed apart in the source
[5] = human; remark: listed apart in the source
[6] = human, serum
[7] = Highest frequency of acute liver toxicity observed during clinical trials, expressed as a percentage. [column '% AIGUE' in source]; conditions: human
[8] = Highest frequency of moderate liver toxicity observed during clinical trials, expressed as a percentage. [column '% BIOL' in source]; conditions: human
[9] = human; remark: listed apart in the source
[10] = Proposed mechanism(s) of liver damage. [column 'MEC' in source]; conditions: human
[11] = human, serum, 4383 h
[12] = human; remark: listed apart in the source
[13] = human; remark: listed apart in the source
[14] = human, serum; remark: listed apart in the source
[15] = Times to onset, minimal and maximal, observed in the indexed observations. [column 'DELAI' in source]; conditions: human
[16] = human; remark: listed apart in the source
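For Hepatotoxicity (association with vascular disease) in this document: count of indexed literature references reporting vascular liver injury in humans, e.g. peliosis hepatitis, hepatic veno-occlusive disease or Budd-Chiari syndrome.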
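For Hepatotoxicity (benign tumour) in this document: value is a count of indexed literature references citing a benign tumour confirmed by histopathology.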
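For Hepatotoxicity (choleostasis) in this document: human cholestatic liver injury, shown by histopathology or by peak ALT or AST elevation over alkaline phosphatase ratio below 2, value counts indexed literature reports.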
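For Hepatotoxicity (chronic liver disease) in this document: chronic liver injury confirmed by histopathology or persistently raised serum aminotransferase activity beyond 6 months, value given as the count of indexed literature references.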
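For Hepatotoxicity (cirrhosis) in this document: value is a count of indexed literature references reporting cirrhosis confirmed by histopathology.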
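For Hepatotoxicity (cytolytic) in this document: human cytolytic liver injury, shown by histopathology or by a ratio above 5 of peak ALT or AST elevation to alkaline phosphatase elevation, value counts indexed references.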
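For Hepatotoxicity (granulomatous hepatitis) in this document: value is a count of indexed literature references reporting granulomatous liver disease confirmed by histopathology.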
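For Hepatotoxicity (malignant tumour) in this document: malignant tumour confirmed by histopathology, value gives the count of indexed literature references reporting it.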
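For Hepatotoxicity (severe hepatitis) in this document: human clinical data: severe hepatitis, meaning potentially life-threatening liver failure or clinically observed cases, the value counts how many indexed literature references report it.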
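For Hepatotoxicity (steatosis) in this document: steatosis confirmed by histopathology, value is the count of indexed references.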

| Compound | Hepatotoxicity (steatosis) [1] | Hepatotoxicity (cirrhosis) [2] | Hepatotoxicity (severe hepatitis) [3] | Hepatotoxicity (benign tumour) [4] | Hepatotoxicity (association with vascular disease) [5] | Hepatotoxicity (moderate) [6] | Hepatotoxicity (acute) [7] | Hepatotoxicity (moderate) [8] | Hepatotoxicity (granulomatous hepatitis) [9] | Hepatotoxicity (mechanism) [10] | Hepatotoxicity (chronic liver disease) [11] | Hepatotoxicity (malignant tumour) [12] | Hepatotoxicity (cytolytic) [13] | Hepatotoxicity (acute) [14] | Hepatotoxicity (time to onset) [15] | Hepatotoxicity (choleostasis) [16] | other results |
| --- | --- | --- | --- | --- | --- | --- | --- | --- | --- | --- | --- | --- | --- | --- | --- | --- | --- |
| CN(C)[C@@H]1C(O)=C(C(N)=O)C(=O)[C@@]2(O)C(O)=C3C(=O)c4c(O)cccc4[C@@](C)(O)[C@H]3[C@H](O)[C@@H]12 [OXYTETRACYCLINE] | 4 | 0 | 1 | 0 | 0 | 1 | 0% | 60% | 0 | Dose-dependant | 0 | 0 | 0 | 2 | 5 days - 3 weeks | 2 |  |
| CN1CCN(CCCN2c3ccccc3Sc3ccccc32)CC1 [PERAZINE] | 0 | 0 | 0 | 0 | 0 | 5 | 0.3% | 43% | 0 | Dose-dependant | 0 | 0 | 2 | 3 | 1.5 months - 1 year | 1 |  |
| NC(=O)NC(=O)Cc1ccccc1 [PHENACEMIDE] | 0 | 0 | 8 | 0 | 0 | 1 | 3% | 0% | 0 | Allergic | 0 | 0 | 8 | 13 | 1 month - 3 months | 0 |  |
| c1ccc(C2(N3CCCCC3)CCCCC2)cc1 [PHENCYCLIDINE] | 0 | 0 | 2 | 0 | 0 | 1 | 0% | 49.9% | 0 | Dose-dependant | 0 | 0 | 2 | 2 | 6 hours - 3 days | 0 |  |
| CNNCc1ccc(C(=O)NC(C)C)cc1 [PROCARBAZINE] | 0 | 0 | 0 | 0 | 0 | 0 | 1% | 0% | 1 | Allergic | 0 | 1 | 2 | 2 | 2 weeks - 3 weeks | 0 |  |
| NC(=O)c1ncn([C@@H]2O[C@H](CO)[C@@H](O)[C@H]2O)n1 [RIBAVIRIN] | 1 | 0 | 1 | 0 | 0 | 3 | 0% | 33% | 0 | Mitochondrial toxicity | 0 | 0 | 1 | 2 | 11 weeks - 6 months | 1 |  |
| CO[C@H]1/C=C/O[C@@]2(C)Oc3c(C)c(O)c4c(c3C2=O)C2=NC3(CCN(CC(C)C)CC3)NC2=C(NC(=O)/C(C)=C\C=C\[C@H](C)[C@H](O)[C@@H](C)[C@@H](O)[C@@H](C)[C@H](OC(C)=O)[C@@H]1C)C4=O [RIFABUTIN] | 0 | 0 |  | 0 | 0 | 6 |  |  |  |  | 0 | 0 |  | 2 | 2 weeks - 11 weeks |  | Hepatotoxicity (severe hepatitis) ([3]; Liver): 1; Hepatotoxicity (acute) ([7]; Liver): 0%; Hepatotoxicity (moderate) ([8]; Liver): 7.1%; Hepatotoxicity (granulomatous hepatitis) ([9]; Liver): 0; Hepatotoxicity (mechanism) ([10]; Liver): Dose-dependant; Hepatotoxicity (cytolytic) ([13]; Liver): 1; Hepatotoxicity (choleostasis) ([16]; Liver): 0 |
| CS(=O)(=O)c1ccc(C2=C(c3ccccc3)C(=O)OC2)cc1 [ROFECOXIB] | 0 | 0 | 0 | 0 | 0 | 1 | 0% | 3.2% | 0 | Allergic | 0 | 0 | 1 | 2 | 9 weeks | 1 |  |
| CCC(C)n1ncn(-c2ccc(N3CCN(c4ccc(OC[C@H]5CO[C@](Cn6cncn6)(c6ccc(F)cc6F)O5)cc4)CC3)cc2)c1=O (stereo not given in full) [SAPERCONAZOLE] | 0 | 0 | 0 | 0 | 0 | 1 | 0% | 0% | 0 | Dose-dependant | 0 | 0 | 0 | 0 | 8 weeks | 0 |  |
| CC(C)[C@@H](CC[C@@H](C)[C@H]1CC[C@H]2[C@@H]3[C@H](O)C[C@H]4C[C@@H](NCCCNCCCCN)CC[C@]4(C)[C@H]3CC[C@]12C)OS(=O)(=O)O [SQUALAMINE] | 0 | 0 | 0 | 0 | 0 | 1 | 38.5% | 0% | 0 | Dose-dependant | 0 | 0 | 2 | 2 | 2 days - 5 days | 1 |  |
